Measured values: ChEMBL document CHEMBL1201862, “PubChem BioAssay data set” (2004)
Active and inactive are the calls of the source.

How the values were obtained:
Format in all cases: functional
[1] = biological target: G protein-coupled receptor kinase 5 (Homo sapiens, UniProt P34947); assay: Navigating the Kinome. Panel member name: GPRK5
[2] = biological target: Serine/threonine-protein kinase Chk1 (Homo sapiens, UniProt O14757);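 also: measured as one member of a kinome-wide kinase profiling panel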
[3] = biological target: Mast/stem cell growth factor receptor Kit (Homo sapiens, UniProt P10721);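 also: KIT entry within a kinase panel assay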
SRSF protein kinase 1 = SRSF protein kinase 1 (Homo sapiens, UniProt Q96SB4);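 also: measured as one member of a kinome-wide kinase profiling panel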
[4] = biological target: Dual specificity protein kinase CLK2 (Homo sapiens, UniProt P49760)
[5] = biological target: Serine/threonine-protein kinase MRCK alpha (Homo sapiens, UniProt Q5VT25)
[6] = biological target: Serine/threonine-protein kinase Nek4 (Homo sapiens, UniProt P51957)
[7] = biological target: Dual specificity tyrosine-phosphorylation-regulated kinase 3 (Homo sapiens, UniProt O43781);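 also: measured as one member of a broad kinase panel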
[8] = biological target: Casein kinase I isoform delta (Homo sapiens, UniProt P48730);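 also: measured as one member (CSNK1D) of a kinome panel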
[9] = biological target: Protein kinase C zeta type (Homo sapiens, UniProt Q05513);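 also: measured as one member of a broad kinase profiling panel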
[10] = biological target: MAP kinase-interacting serine/threonine-protein kinase 2 (Homo sapiens, UniProt Q9HBH9)
[11] = biological target: Mitogen-activated protein kinase kinase kinase kinase 2 (Homo sapiens, UniProt Q12851);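 also: measured as one member of a kinome-wide kinase panel, with MAP4K2 as the panel entry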
[12] = biological target: Protein kinase C delta type (Homo sapiens, UniProt Q05655)
[13] = biological target: Phosphorylase b kinase gamma catalytic chain, liver/testis isoform (Homo sapiens, UniProt P15735);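 also: PHKG2 measured as one member of a kinome-wide kinase panel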
[14] = biological target: Serine/threonine-protein kinase pim-3 (Homo sapiens, UniProt Q86V86);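 also: value obtained as one member of a broad kinase panel profiling effort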
[15] = biological target: T1, Interleukin-1 receptor-associated kinase 4 (Homo sapiens, UniProt Q9NWZ3)
T1 sequence (Q9NWZ3 whole entry): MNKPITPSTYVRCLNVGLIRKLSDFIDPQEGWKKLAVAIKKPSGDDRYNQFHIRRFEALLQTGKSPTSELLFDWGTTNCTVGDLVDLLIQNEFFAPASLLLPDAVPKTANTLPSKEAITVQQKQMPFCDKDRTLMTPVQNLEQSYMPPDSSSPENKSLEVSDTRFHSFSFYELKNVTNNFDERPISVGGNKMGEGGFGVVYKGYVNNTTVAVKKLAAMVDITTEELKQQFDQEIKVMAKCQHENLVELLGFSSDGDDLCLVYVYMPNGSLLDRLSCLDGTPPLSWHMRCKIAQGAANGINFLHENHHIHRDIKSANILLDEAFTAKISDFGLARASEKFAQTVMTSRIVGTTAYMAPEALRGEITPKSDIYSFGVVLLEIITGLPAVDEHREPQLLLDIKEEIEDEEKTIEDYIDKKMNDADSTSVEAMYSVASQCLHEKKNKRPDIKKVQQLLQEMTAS

[16] = biological target: Glycogen synthase kinase-3 beta (Homo sapiens, UniProt P49841);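 also: value comes from a broad kinome profiling panel, with GSK3B as the panel member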
[17] = biological target: Calcium/calmodulin-dependent protein kinase type 1 (Homo sapiens, UniProt Q14012)
[18] = biological target: Rho-associated protein kinase 1 (Homo sapiens, UniProt Q13464);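 also: measured within a broad kinome-wide panel profiling many kinases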
[19] = biological target: Non-receptor tyrosine-protein kinase TYK2 (Homo sapiens, UniProt P29597)
[20] = biological target: Serine/threonine-protein kinase N2 (Homo sapiens, UniProt Q16513)
[21] = biological target: Casein kinase II subunit alpha (Homo sapiens, UniProt P68400)
[22] = biological target: Glycogen synthase kinase-3 alpha (Homo sapiens, UniProt P49840);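 also: GSK3A result taken from a broad kinome-wide kinase panel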

Sequence of Mitogen-activated protein kinase kinase kinase kinase 2 (Q12851 whole entry): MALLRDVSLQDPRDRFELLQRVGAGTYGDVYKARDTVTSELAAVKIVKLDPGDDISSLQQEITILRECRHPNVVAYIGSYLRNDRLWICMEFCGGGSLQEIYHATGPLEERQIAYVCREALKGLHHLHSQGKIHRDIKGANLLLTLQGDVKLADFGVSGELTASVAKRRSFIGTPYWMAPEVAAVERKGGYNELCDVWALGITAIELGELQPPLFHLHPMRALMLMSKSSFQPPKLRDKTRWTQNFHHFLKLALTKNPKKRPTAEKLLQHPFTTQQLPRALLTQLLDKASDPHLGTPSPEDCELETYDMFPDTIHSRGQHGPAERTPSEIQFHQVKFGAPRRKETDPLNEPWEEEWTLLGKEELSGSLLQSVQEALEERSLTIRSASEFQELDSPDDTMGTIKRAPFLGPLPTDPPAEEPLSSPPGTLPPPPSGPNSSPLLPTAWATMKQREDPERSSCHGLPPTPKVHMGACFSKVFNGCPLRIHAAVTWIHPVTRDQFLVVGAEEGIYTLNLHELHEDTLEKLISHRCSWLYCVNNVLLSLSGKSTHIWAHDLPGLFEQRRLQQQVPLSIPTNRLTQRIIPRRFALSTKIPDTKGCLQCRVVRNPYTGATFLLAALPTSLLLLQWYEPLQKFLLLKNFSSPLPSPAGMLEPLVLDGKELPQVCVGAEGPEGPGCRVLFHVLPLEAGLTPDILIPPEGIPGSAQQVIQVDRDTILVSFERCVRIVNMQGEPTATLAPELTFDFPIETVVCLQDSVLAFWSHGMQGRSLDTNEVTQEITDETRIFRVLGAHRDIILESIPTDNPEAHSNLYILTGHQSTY
Sequence of Phosphorylase b kinase gamma catalytic chain, liver/testis isoform (P15735 whole entry, canonical isoform): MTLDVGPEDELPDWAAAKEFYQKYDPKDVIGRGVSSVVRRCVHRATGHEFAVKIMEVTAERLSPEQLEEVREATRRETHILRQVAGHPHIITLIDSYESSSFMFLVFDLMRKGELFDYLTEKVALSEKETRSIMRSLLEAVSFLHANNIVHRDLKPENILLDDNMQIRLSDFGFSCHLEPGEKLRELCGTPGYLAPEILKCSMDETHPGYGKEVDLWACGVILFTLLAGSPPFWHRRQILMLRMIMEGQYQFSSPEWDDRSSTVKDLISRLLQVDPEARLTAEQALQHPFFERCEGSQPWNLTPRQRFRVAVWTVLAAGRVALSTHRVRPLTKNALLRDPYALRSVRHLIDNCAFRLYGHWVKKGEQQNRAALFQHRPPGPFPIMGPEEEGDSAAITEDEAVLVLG
Sequence of G protein-coupled receptor kinase 5 (P34947 whole entry): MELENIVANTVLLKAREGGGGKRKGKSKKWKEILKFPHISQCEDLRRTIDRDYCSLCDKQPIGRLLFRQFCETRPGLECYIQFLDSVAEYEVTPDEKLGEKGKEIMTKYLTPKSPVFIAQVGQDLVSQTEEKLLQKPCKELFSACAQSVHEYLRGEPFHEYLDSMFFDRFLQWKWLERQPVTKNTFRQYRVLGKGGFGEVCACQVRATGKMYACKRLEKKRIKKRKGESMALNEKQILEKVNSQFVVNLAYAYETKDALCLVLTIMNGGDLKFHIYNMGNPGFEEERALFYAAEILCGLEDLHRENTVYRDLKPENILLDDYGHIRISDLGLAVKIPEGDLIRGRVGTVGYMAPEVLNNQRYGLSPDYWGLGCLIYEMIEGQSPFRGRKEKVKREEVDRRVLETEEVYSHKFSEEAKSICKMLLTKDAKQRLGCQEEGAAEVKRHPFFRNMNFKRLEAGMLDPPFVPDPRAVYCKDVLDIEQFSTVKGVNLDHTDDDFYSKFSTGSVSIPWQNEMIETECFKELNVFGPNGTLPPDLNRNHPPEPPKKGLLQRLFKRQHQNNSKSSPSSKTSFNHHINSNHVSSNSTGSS
Sequence of Serine/threonine-protein kinase MRCK alpha (Q5VT25 whole entry): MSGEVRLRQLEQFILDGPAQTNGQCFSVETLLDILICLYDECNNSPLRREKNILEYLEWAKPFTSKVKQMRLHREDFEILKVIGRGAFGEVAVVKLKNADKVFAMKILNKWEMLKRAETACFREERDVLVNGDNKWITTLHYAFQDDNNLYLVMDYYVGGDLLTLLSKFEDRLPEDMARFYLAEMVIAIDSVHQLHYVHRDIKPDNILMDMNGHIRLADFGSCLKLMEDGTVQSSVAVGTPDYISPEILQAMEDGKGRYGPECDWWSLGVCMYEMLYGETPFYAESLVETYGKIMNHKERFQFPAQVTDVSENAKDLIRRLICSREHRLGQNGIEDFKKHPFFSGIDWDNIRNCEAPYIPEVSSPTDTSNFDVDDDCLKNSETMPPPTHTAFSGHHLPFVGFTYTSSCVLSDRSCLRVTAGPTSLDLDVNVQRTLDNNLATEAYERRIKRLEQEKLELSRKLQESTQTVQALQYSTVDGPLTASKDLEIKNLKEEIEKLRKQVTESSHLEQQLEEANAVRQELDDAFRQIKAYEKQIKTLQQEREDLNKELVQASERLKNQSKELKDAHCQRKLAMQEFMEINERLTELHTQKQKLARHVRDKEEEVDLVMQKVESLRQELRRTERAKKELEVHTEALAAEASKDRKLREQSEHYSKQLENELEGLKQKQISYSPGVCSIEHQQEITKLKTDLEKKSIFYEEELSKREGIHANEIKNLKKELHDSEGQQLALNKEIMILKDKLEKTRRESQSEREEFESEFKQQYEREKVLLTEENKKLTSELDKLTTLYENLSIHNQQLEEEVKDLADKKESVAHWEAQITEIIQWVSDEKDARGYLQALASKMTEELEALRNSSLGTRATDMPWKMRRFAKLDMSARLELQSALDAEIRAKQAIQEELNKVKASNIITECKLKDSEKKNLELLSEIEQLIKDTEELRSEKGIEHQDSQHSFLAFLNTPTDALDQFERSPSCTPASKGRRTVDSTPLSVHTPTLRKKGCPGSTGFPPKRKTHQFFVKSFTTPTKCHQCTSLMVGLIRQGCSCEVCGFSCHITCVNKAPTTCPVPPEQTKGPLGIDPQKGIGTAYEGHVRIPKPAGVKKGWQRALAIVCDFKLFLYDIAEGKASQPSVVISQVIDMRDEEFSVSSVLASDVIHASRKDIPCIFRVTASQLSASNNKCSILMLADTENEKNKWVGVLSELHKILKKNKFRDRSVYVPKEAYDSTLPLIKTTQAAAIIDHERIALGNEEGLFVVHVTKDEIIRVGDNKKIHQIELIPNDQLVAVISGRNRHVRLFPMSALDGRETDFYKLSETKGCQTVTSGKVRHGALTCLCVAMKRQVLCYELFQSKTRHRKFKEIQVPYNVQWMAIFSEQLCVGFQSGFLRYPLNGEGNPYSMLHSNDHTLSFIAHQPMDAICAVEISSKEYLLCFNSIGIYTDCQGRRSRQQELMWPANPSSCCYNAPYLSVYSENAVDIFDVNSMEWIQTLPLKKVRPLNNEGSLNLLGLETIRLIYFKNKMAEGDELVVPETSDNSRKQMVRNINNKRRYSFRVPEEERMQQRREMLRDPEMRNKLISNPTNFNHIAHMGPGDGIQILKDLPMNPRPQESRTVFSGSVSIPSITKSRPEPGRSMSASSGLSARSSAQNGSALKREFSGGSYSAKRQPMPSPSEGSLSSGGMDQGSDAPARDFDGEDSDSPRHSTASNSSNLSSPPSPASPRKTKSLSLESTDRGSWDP
Sequence of Serine/threonine-protein kinase Chk1 (O14757 whole entry): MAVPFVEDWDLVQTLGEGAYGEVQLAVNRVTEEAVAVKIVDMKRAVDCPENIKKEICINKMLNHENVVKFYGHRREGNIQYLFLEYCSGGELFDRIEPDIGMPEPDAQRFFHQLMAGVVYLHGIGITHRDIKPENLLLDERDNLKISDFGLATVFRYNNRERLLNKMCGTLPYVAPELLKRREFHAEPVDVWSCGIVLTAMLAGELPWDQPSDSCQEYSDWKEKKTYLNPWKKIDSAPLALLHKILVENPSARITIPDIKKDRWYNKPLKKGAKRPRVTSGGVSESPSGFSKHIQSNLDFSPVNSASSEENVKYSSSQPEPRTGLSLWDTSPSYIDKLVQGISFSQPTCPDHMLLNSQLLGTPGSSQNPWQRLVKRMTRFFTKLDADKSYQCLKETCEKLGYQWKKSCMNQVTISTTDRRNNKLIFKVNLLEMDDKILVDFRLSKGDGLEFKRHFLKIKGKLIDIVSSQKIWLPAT
Sequence of Dual specificity tyrosine-phosphorylation-regulated kinase 3 (O43781 whole entry, canonical isoform): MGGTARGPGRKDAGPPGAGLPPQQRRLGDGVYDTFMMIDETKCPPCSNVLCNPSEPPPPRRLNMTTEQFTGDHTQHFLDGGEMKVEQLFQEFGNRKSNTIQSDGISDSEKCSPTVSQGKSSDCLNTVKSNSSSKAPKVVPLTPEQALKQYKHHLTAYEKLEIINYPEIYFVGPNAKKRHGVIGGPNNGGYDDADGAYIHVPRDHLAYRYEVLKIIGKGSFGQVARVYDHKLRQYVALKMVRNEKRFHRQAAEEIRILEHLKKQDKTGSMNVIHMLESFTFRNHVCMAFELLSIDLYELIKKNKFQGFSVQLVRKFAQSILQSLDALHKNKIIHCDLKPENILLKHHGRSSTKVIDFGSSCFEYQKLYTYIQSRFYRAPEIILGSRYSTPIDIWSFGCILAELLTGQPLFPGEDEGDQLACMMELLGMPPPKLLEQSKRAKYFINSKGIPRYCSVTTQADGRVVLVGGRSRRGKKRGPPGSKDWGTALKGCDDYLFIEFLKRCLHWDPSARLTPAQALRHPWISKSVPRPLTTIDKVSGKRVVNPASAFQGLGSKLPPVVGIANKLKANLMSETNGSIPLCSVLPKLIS

- Ki [1]: > 3.98 µM (inactive)
- Ki [2]: > 7.94 µM (inactive)
- Ki [3]: > 3.98 µM (inactive)
- Ki (SRSF protein kinase 1): > 7.94 µM (inactive)
- Ki [4]: > 5.01 µM (inactive)
- Ki [5]: > 10 µM (inactive)
- Ki [6]: > 6.31 µM (inactive)
- Ki [7]: > 6.31 µM (inactive)
- Ki [8]: > 7.94 µM (inactive)
- Ki [9]: > 7.94 µM (inactive)
- Ki [10]: > 10 µM (inactive)
- Ki [11]: > 5.01 µM (inactive)
- Ki [12]: > 7.94 µM (inactive)
- Ki [13]: > 5.01 µM (inactive)
- Ki [14]: > 7.94 µM (inactive)
- Ki [15]: 2.51 µM (active)
- Ki [16]: > 5.01 µM (inactive)
- Ki [17]: > 5.01 µM (inactive)
- Ki [18]: > 6.31 µM (inactive)
- Ki [19]: 1.58 µM (active)
- Ki [20]: > 7.94 µM (inactive)
- Ki [21]: > 6.31 µM (inactive)
- Ki [22]: > 7.94 µM (inactive)
SMILES: NNc1cc(N2CCOCC2)nc(OCCc2ccccn2)n1
